The source of these data is patent publication US8729013B2 (priority 2004, dated 2014).

What all share (type): cell-based, Staphylococcus aureus
Experiment [1] has as its system H1071 (RN6390 ΔfhuCBG::ermB). The experiment can be described thus: Siderophore plate bioassay (iron source utilization). The settings on record: TMS agar, 25 μM EDDHA; compared with wildtype. The protocol:
Siderophore plate bioassays were performed essentially as described (Sebulsky et al. (2000) J. Bacteriol. 182:4394-4400). Briefly, 10^4 cells/mL were added to molten TMS agar containing 25 μM EDDHA as an iron chelating agent. Ten microliters of iron sources to be tested (DESFERAL® (50 μM), ferrichrome (50 μM), enterobactin (500 μM), staphylobactin (50 μM DESFERAL® equivalents), hemin (250 μg/mL), hemoglobin (2 mg/mL), FeCl3 (50 mM), or ferric citrate (5 mM)) were added to sterile 6 mm-diameter paper disks and placed on the surface of the plates. Growth promotion, as measured by the diameter of the growth halo around each disk, was determined after 48 h incubation, except for heme and hemoglobin, which were measured after 72 hours.

The next experiment deals with sirA and sirB mutants. The experiment can be described thus: Siderophore plate bioassay (growth promotion). Conditions: data not shown. The protocol: Siderophore plate bioassays were performed essentially as previously described (Sebulsky et al. (2000) J. Bacteriol. 182:4394-4400) with the following modifications: TMS-agar was cooled to 45° C. before the addition of 10^5 cfu/ml of each strain to be tested. 2,2′-dipyridyl was added at a concentration of 550 μM for plates containing S. aureus Newman and Newman containing vehicle controls (e.g. pAW8 and pALC2073) or 400 μM 2,2′-dipyridyl for strains H803 (Newman sirA::Km) and H804 (Newman sirB::Tet) (see FIG. 1) with or without plasmids. Staphylobactin siderophore was isolated from RN6390 as previously described (Dale et al. (2004) Infect. Immun. 72:29-37). Briefly, S. aureus strains were vigorously shaken in TMS for 48 hours at 37° C. Culture supernatants were recovered by centrifugation in 100% methanol to 1/10 of the volume of the original culture supernatant and passed through Whatman No. 1 filter paper to remove particulate material. Rotary evaporation was used to reduce the volume before application to an LH-20 column (Amersham Biosciences). Fractions were collected, and those testing positive with chrome azurol S (CAS) shuttle solution and for biological activity in siderophore plate bioassays were dried, resuspended in water, and examined by high-performance liquid chromatography (HPLC). Analytical reversed-phase HPLC was used for final purification of siderophore. The column utilized was a Waters ODS2 SPherisorb column (4.6 by 150 mm). Trifluoroacetic acid (0.1%) in water represented solvent A whereas 0.1% trifluoroacetic acid in acetonitrile was used as solvent B. The chromatographic method used was as follows: at a flow rate of 0.75 ml/min, 6% B for 3.5 min., followed by a gradient of 6 to 60% B over 20 min. […] Staphylobactin was collected, dried, and rechromatographed to check for purity. The purity of Staphylobactin siderophore was confirmed by HPLC analysis. Aerobactin was purchased from EMC microcollections and used at a concentration of 1 μg/ml as a control in all bioassays.

Experiment [2] relates to S. aureus H804 (Newman sirB::Tet). Briefly: Minimum inhibitory concentration (MIC) in TMS. Conditions: H804, bacteria grown in TMS. The text has this:
(§1) Streptonigrin is toxic to cells in the presence of intracellular iron and, therefore, cells importing iron are generally more sensitive to the toxic affects of this drug versus mutants debilitated in iron import (Yeowell et al. (1982) Antimicrob. Agents Chemother. 22:961-968). The minimum inhibitory concentration (MIC) of streptonigrin was approximately 4-fold lower for S. aureus Newman grown in TMS than for either S. aureus H803 or H804 grown in the same media (see Table 2).

For experiment [3], the system named is S. aureus H803 (Newman sirA::Km). Briefly: Minimum inhibitory concentration (MIC) in TMS. Conditions: H803, bacteria grown in TMS.
Description: as §1

The test system of the next experiment is S. aureus Newman. Briefly: Minimum inhibitory concentration (MIC) in TMS.
Description: as §1

Where [4] appears, read: Staphylococcus aureus, NEWMAN, read-out: MIC Streptonigrin.

Values after ≈ are worked out from the molar mass of the structure shown. Non-standard residues stand in square brackets, D forms with d. Residues, ends and D or L forms follow the SMILES beside them. Orn(N5-OH,N5-Ac) = CC(=O)N(O)CCC[C@H](N)C(=O)O

Consider `CC(=O)N[C@@H](CCCN([O-])C(=O)/C=C(\C)CCO)C(=O)OCC/C(C)=C/C(=O)N([O-])CCC[C@@H]1NC(=O)[C@H](CCCN([O-])C(=O)/C=C(\C)CCO)NC1=O.[Fe+3]` [coprogen], for which the “utilization as iron source by H1071” value in experiment [1] is “unable to utilize”.
Take `CC(=O)N(O)CCCCCNC(=O)CCC(=O)N(O)CCCCCNC(=O)CCC(=O)N(O)CCCCCN` [DESFERAL®, desferrioxamine B]: the “growth promotion in mutants” value in the experiment on sirA and sirB mutants is recorded as “unaffected”. In addition, in experiment [1], the “utilization as iron source by H1071” value is reported as “unable to utilize”.
Consider hemin, for which the “utilization as iron source by H1071” value in experiment [1] is reported as “not significantly impaired”.
Regarding `CC(=O)N(O)CCCC[C@H](NC(=O)CC(O)(CC(=O)N[C@@H](CCCCN(O)C(C)=O)C(=O)O)C(=O)O)C(=O)O` [aerobactin], the “growth promotion in mutants” value with sirA and sirB mutants is given as “unaffected”. In experiment [1], the “utilization as iron source by H1071” value was “unable to utilize”.
Consider `c1ccc(-c2ccccn2)nc1` [2,2′-dipyridyl], for which the “MIC 2,2′-dipyridyl” value in experiment [2] turned out to be 125 µM (≈ 19.5 µg/mL); in experiment [3], 125 µM (≈ 19.5 µg/mL); against S. aureus Newman (Newman, bacteria grown in TMS), 500 µM (≈ 78.1 µg/mL). Also, the “MIC higher for Newman than for H803 or H804” value with S. aureus Newman stood at 4 fold.
As to hemoglobin, the “utilization as iron source by H1071” value in experiment [1] is given as “not significantly impaired”.
For `COC1=C(N)C(=O)c2nc(-c3nc(C(=O)O)c(C)c(-c4ccc(OC)c(OC)c4O)c3N)ccc2C1=O` [Streptonigrin, streptonigrin], the MIC in experiment [2] (setting [4]) came to 8 ng/mL (≈ 0.0158 µM); in experiment [3] (setting [4]), 8 ng/mL (≈ 0.0158 µM); with S. aureus Newman (Staphylococcus aureus, Newman + 50 μM DESFERAL, TMS, read-out: MIC Streptonigrin), 2 ng/mL. Moreover, the “MIC Streptonigrin” value with S. aureus Newman (Newman, bacteria grown in TMS) was 2 ng/mL (≈ 0.00395 µM). In addition, the “MIC lower for Newman than for H803 or H804” value in the experiment on S. aureus Newman (grown in TMS) is “approximately 4 fold”.
Take `CC(=O)N([O-])CCC[C@@H]1NC(=O)CNC(=O)CNC(=O)CNC(=O)[C@H](CCCN([O-])C(C)=O)NC(=O)[C@H](CCCN([O-])C(C)=O)NC1=O.[Fe+3]` [ferrichrome] (cyclo(GGG[Orn(N5-OH,N5-Ac)][Orn(N5-OH,N5-Ac)][Orn(N5-OH,N5-Ac)])): the “utilization as iron source by H1071” value in experiment [1] is “unable to utilize”.
For the compound `O=C(N[C@H]1COC(=O)[C@@H](NC(=O)c2cccc(O)c2O)COC(=O)[C@@H](NC(=O)c2cccc(O)c2O)COC1=O)c1cccc(O)c1O` [enterobactin], the “utilization as iron source by H1071” value in experiment [1] is “not significantly impaired”.
As for ferric citrate, the “growth promotion in mutants” value with sirA and sirB mutants is recorded as “unaffected”. In experiment [1], the “utilization as iron source by H1071” value was “not significantly impaired”.
